The values below are quoted from earlier work in patent US20050266409A1, “Compositions and methods for diagnosing, preventing, and treating cancers” (priority 2003, published 2005).

One data set deals with tumor cells. The settings on record: read-out: 50% growth inhibition of tumor cells.
Data set [1] relates to lymphoid, myeloid, colon, and prostate cancer cells. The note with it: prostate cancer xenografts in nude mice.

pIC50: −log10 of the molar value.

As to `CN1CC[C@H](c2c(O)cc(O)c3c(=O)cc(-c4ccccc4Cl)oc23)[C@H](O)C1` [Flavopiridol], the pIC50 with tumor cells is 7.22. Further, the “inhibition of cancer cells grown in vivo as tumor xenografts” value in data set [1] is on record as “inhibits”.
